In US7994324B2, “2-aminoquinoline derivatives” (Hoffmann-La Roche Inc., priority 2008, dated 2011):

Assays:
[1] = molecular target: T1, recombinant human 5-HT5A receptor (Homo sapiens, UniProt P47898); experiment: [3H]LSD radioligand binding assay; details: [3H]LSD (approximately 1 nM), membranes from HEK-EBNA cells transiently expressing 5-HT5A receptors; Ki from IC50 by Cheng-Prussoff equation
T1 construct: expressed in transfected cells; host or cells: HEK-EBNA (Human Embryonic Kidney-EBNA) cells, transient cDNA expression; membranes used
Experimental: A [^3H]LSD radioligand binding assay was used to determine the affinity of the compounds for the recombinant human 5-HT5A receptor, in membranes from transiently (cDNA) expressed 5-HT5A receptors in Human Embryonic Kidney-EBNA (HEK-EBNA) cells. Assay buffer consisted of Tris (50 mM) buffer containing 1 mM EGTA, 10 mM MgCl2 (pH 7.4) and 10 μM pargyline. The binding assay was carried out in 96-well-plates in the presence of [^3H]LSD (approximately 1 nM), approximately 2 μg/well of membrane protein, and 0.5 mg of Ysi-poly-1-lysine SPA beads in a final volume of 200 μl of buffer. Non-specific binding was defined using methiothepin 2 μM. Compounds were tested at 10 concentrations. All assays were conducted in duplicate and repeated at least two times. Assay plates were incubated for 120 min at room temperature before centrifugation. Bound ligand was determined using a Packard Topcount scintillation counter. IC50 values were calculated using a non-linear curve fitting program and Ki values calculated using the Cheng-Prussoff equation.

T1 sequence (P47898 whole entry): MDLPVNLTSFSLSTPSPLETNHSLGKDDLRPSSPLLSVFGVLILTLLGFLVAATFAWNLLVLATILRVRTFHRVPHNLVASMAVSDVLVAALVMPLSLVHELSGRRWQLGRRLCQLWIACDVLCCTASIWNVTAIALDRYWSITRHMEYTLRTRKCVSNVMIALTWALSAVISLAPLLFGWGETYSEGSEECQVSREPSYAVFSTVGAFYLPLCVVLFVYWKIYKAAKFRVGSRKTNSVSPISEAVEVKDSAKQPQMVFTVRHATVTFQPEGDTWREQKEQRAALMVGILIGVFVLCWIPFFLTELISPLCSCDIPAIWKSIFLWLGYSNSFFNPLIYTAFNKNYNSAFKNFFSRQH

melting point [°C] | Ki [1] [nM] | Compound
192 |  | COc1ccc(CC(=O)Nc2cccc3nc(NC4CCc5cc(F)ccc54)ccc23)cc1 (racemic) [Example 53, rac-N-[2-(5-Fluoro-indan-1-ylamino)-quinolin-5-yl]-2-(4-methoxy-phenyl)-acetamide]
 | 219 | Nc1cccc2nc(NC3Cc4ccccc4C3)ccc12 (racemic) [Example 23, rac-N^2-Indan-2-yl-quinoline-2,5-diamine]
195 | 11 | COc1cccc2c1C(Nc1ccc3c(NC(=O)Cc4ccc(F)cc4)cccc3n1)CC2 (racemic) [Example 54, rac-2-(4-Fluoro-phenyl)-N-[2-(7-methoxy-indan-1-ylamino)-quinolin-5-yl]-acetamide]
 | 27.7 | c1ccc2c(c1)CC[C@H]2Nc1ccc2c(C3CC3)cccc2n1 [Example 44, (5-Cyclopropyl-quinolin-2-yl)-(R)-indan-1-yl-amine]
234 | 9.1 | COc1cccc2c1C(Nc1ccc3c(NC(=O)Cc4ccc(Cl)cc4)cccc3n1)CC2 (racemic) [Example 57, rac-2-(4-Chloro-phenyl)-N-[2-(7-methoxy-indan-1-ylamino)-quinolin-5-yl]-acetamide]
163.5 | 36.1 | O=C(Cc1cccs1)Nc1cccc2nc(N[C@@H]3CCc4ccccc43)ccc12 [Example 46, N-[2-((R)-Indan-1-ylamino)-quinolin-5-yl]-2-thiophen-2-yl-acetamide]
200.5 | 17.4 | N=C(NO)c1cccc2nc(N[C@@H]3CCc4ccccc43)ccc12 [Example 28, N-Hydroxy-2-((R)-indan-1-ylamino)-quinoline-5-carboxamidine]
221 | 9.4 | O=C(Cc1ccc(Cl)cc1)Nc1cccc2nc(NC3CCc4cc(F)ccc43)ccc12 (racemic) [Example 51, rac-2-(4-Chloro-phenyl)-N-[2-(5-fluoro-indan-1-ylamino)-quinolin-5-yl]-acetamide]
194 |  | COc1cccc2c1C(Nc1ccc3c(NC(=O)Cc4cccs4)cccc3n1)CC2 (racemic) [Example 55, rac-N-[2-(7-Methoxy-indan-1-ylamino)-quinolin-5-yl]-2-thiophen-2-yl-acetamide]
211 |  | O=C(CC1CCOCC1)Nc1cccc2nc(N[C@@H]3CCc4ccccc43)ccc12 [Example 35, N-[2-((R)-Indan-1-ylamino)-quinolin-5-yl]-2-(tetrahydro-pyran-4-yl)-acetamide]
221 | 28.7 | O=C(Cc1cc(F)cc(F)c1)Nc1cccc2nc(N[C@@H]3CCc4ccccc43)ccc12 [Example 59, 2-(3,5-Difluoro-phenyl)-N-[2-((R)-indan-1-ylamino)-quinolin-5-yl]-acetamide]
 | 6.1 | COc1cccc2c1C(Nc1ccc3c(N)cccc3n1)CC2 (racemic) [Example 19, rac-N^2-(7-Methoxy-indan-1-yl)-quinoline-2,5-diamine]
179 |  | O=C(CN1CCOCC1)Nc1cccc2nc(N[C@@H]3CCc4ccccc43)ccc12 [Example 33, N-[2-((R)-Indan-1-ylamino)-quinolin-5-yl]-2-morpholin-4-yl-acetamide]
 | 7.2 | Nc1cccc2nc(N[C@@H]3CCc4ccccc43)ccc12 [Example 16, (R)—N^2-Indan-1-yl-quinoline-2,5-diamine]
209 |  | COc1ccc(CC(=O)Nc2cccc3nc(NC4CCc5cccc(OC)c54)ccc23)cc1 (racemic) [Example 58, rac-N-[2-(7-Methoxy-indan-1-ylamino)-quinolin-5-yl]-2-(4-methoxy-phenyl)-acetamide]
170 | 5.5 | O=C(Cc1ccc(Cl)cc1)Nc1cccc2nc(N[C@@H]3CCc4ccccc43)ccc12 [Example 60, 2-(4-Chloro-phenyl)-N-[2-((R)-indan-1-ylamino)-quinolin-5-yl]-acetamide]
207 | 11 | O=C(Cc1ccc(F)cc1)Nc1cccc2nc(N[C@@H]3CCc4ccccc43)ccc12 [Example 45, 2-(4-Fluoro-phenyl)-N-[2-((R)-indan-1-ylamino)-quinolin-5-yl]-acetamide]
 | 2.3 | COc1cccc2c1C(Nc1ccc3c(NS(=O)(=O)N(C)C)cccc3n1)CC2 (racemic) [Example 20, rac-N′-{2-[(7-methoxy-indan-1-yl)amino]quinolin-5-yl}-N,N-dimethylsulfamide]
175 |  | COc1ccc(CC(=O)Nc2cccc3nc(N[C@@H]4CCc5ccccc54)ccc23)cc1 [Example 52, N-[2-((R)-Indan-1-ylamino)-quinolin-5-yl]-2-(4-methoxy-phenyl)-acetamide]

melting point [°C] | Ki [1] [nM] | Compound
 | 90.6 | COCCOc1cccc2nc(N[C@@H]3CCc4ccccc43)ccc12 [Example 24, (R)-Indan-1-yl-[5-(2-methoxy-ethoxy)-quinolin-2-yl]-amine]
 | 24.7 | CS(=O)(=O)CCNc1cccc2nc(N[C@@H]3CCc4ccccc43)ccc12 [Example 7, N^2-(R)-Indan-1-yl-N^5-(2-methanesulfonyl-ethyl)-quinoline-2,5-diamine]
248 |  | COc1cccc2c1C(Nc1ccc3c(NC(=O)Cc4cc(F)cc(F)c4)cccc3n1)CC2 (racemic) [Example 56, rac-2-(3,5-Difluoro-phenyl)-N-[2-(7-methoxy-indan-1-ylamino)-quinolin-5-yl]-acetamide]
 | 26.5 | C[S+]([O-])CCNc1cccc2nc(N[C@@H]3CCc4ccccc43)ccc12 (stereo partly drawn) [Example 6, N^2-(R)-Indan-1-yl-N^5-(2-methanesulfinyl-ethyl)-quinoline-2,5-diamine]
187 | 17.6 | O=C(Cc1ccc(F)cc1)Nc1cccc2nc(NC3CCc4cc(F)ccc43)ccc12 (racemic) [Example 48, rac-N-[2-(5-Fluoro-indan-1-ylamino)-quinolin-5-yl]-2-(4-fluoro-phenyl)-acetamide]
184 |  | O=C(Cc1cccs1)Nc1cccc2nc(NC3CCc4cc(F)ccc43)ccc12 (racemic) [Example 49, rac-N-[2-(5-Fluoro-indan-1-ylamino)-quinolin-5-yl]-2-thiophen-2-yl-acetamide]
 | 26 | c1ccc2c(c1)CC[C@H]2Nc1ccc2c(NC3CCOCC3)cccc2n1 [Example 3, N^2-(R)-Indan-1-yl-N^5-(tetrahydro-pyran-4-yl)-quinoline-2,5-diamine]
 | 32.2 | O=S(=O)(Nc1cccc2nc(N[C@@H]3CCc4ccccc43)ccc12)C1CC1 [Example 17, Cyclopropanesulfonic acid[2-((R)-indan-1-ylamino)-quinolin-5-yl]-amide]
 | 105 | c1ccc2c(c1)CC[C@H]2Nc1ccc2c(N3CCOCC3)cccc2n1 [Example 4, (R)-Indan-1-yl-(5-morpholin-4-yl-quinolin-2-yl)-amine]
226 |  | O=C(Cn1ccnc1)Nc1cccc2nc(N[C@@H]3CCc4ccccc43)ccc12 [Example 47, 2-Imidazol-1-yl-N-[2-((R)-indan-1-ylamino)-quinolin-5-yl]-acetamide]
153 |  | CN(C)CC(=O)Nc1cccc2nc(N[C@@H]3CCc4ccccc43)ccc12 [Example 32, 2-Dimethylamino-N-[2-((R)-indan-1-ylamino)-quinolin-5-yl]-acetamide]
 | 23.5 | CSCCNc1cccc2nc(N[C@@H]3CCc4ccccc43)ccc12 [Example 5, N^2-(R)-Indan-1-yl-N^5-(2-methylsulfanyl-ethyl)-quinoline-2,5-diamine]
 | 68 | O=C(Nc1cccc2nc(N[C@@H]3CCc4ccccc43)ccc12)C1CC1 [Example 22, Cyclopropanecarboxylic acid[2-((R)-indan-1-ylamino)-quinolin-5-yl]-amide]
 | 25.2 | COc1cccc2c1C(Nc1ccc3c(NCCSC)cccc3n1)CO2 (racemic) [Example 39, rac-N^2-(4-Methoxy-2,3-dihydro-benzofuran-3-yl)-N^5-(2-methylsulfanyl-ethyl)-quinoline-2,5-diamine]
 | 12.5 | Nc1cccc2nc(NC3CCc4cc(F)ccc43)ccc12 (racemic) [Example 37, rac-N^2-[5-Fluoro-indan-1-yl]-quinoline-2,5-diamine]
203 |  | O=C(Cc1cc(F)cc(F)c1)Nc1cccc2nc(NC3CCc4cc(F)ccc43)ccc12 (racemic) [Example 50, rac-2-(3,5-Difluoro-phenyl)-N-[2-(5-fluoro-indan-1-ylamino)-quinolin-5-yl]-acetamide]
151 | 5.8 | ON=C(c1cccc2nc(N[C@@H]3CCc4ccccc43)ccc12)C1CC1 [Example 31, Cyclopropyl-[2-((R)-indan-1-ylamino)-quinolin-5-yl]-methanone oxime]
188 | 29.1 | COc1cccc2c1C(Nc1ccc3c(NCCS(C)(=O)=O)cccc3n1)CO2 (racemic) [Example 40, N^5-(2-Methanesulfonyl-ethyl)-N^2-(RS)-(4-methoxy-2,3-dihydro-benzofuran-3-yl)-quinoline-2,5-diamine]

Compound | melting point [°C] | Ki [1] [nM]
CNc1cccc2nc(N[C@@H]3CCc4ccccc43)ccc12 [Example 1, N^2-(R)-Indan-1-yl-N^5-methyl-quinoline-2,5-diamine] |  | 22.5
